{
  "source": "ChEMBL document CHEMBL1136438",
  "about": "“Inhibitors of hepatitis C virus NS3.4A protease 1. Non-charged tetrapeptide variants” (Bioorg Med Chem Lett, 2003)",
  "note": "*1 amine or outer side, *2 acyl side, *3 side chain or, on linkers, in order; H or OH if unused. Where a SMILES comes first, the peptide text is derived from it. Side-chain parts run from the residue outwards. [ ]: non-standard residue; d: D form. The star is where a group is joined. ξ: configuration not given here. Pro(4R-OPh) = O=C(O)[C@@H]1C[C@@H](Oc2ccccc2)CN1; CH2(1-naphthyl) = c1ccc2c(C*)cccc2c1; NH(1-naphthyl) = c1ccc2c(N*)cccc2c1; Adipoyl = O=C(CCCCC(=O)[*:2])[*:1]; 1Naphthoyl = O=C(c1cccc2ccccc12)*; 2Naphthoyl = O=C(c1ccc2ccccc2c1)*; Pyrazinecarbonyl = O=C(c1cnccn1)*; Hyp = O=C(O)[C@@H]1C[C@@H](O)CN1; ξAla(CF3) = NC(CC(F)(F)F)C(=O)O; Nva = CCC[C@H](N)C(=O)O; X1 = c1ccc2cc(C*)ccc2c1; X2 = Clc1ccc(Cl)c(N*)c1; X4 = COc1ccc(OC)c(N*)c1; 2Abz = Nc1ccccc1C(=O)O; Abu = CC[C@H](N)C(=O)O; X3 = c1ccc2c(c1)CCCN2*; Aib = CC(C)(N)C(=O)O; CO = O=C([*:1])[*:2]; Bz = O=C(c1ccccc1)*; NHPh = c1ccc(N*)cc1; Bn = c1ccc(C*)cc1",
  "data": [
    {"molecular_target": "Hepatitis C virus serine protease, NS3/NS4A (Hepatitis C virus, UniProt D2K2A8+A3EZI9)", "sequence (D2K2A8 whole entry)": "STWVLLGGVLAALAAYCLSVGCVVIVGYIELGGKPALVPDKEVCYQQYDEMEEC", "sequence (A3EZI9 whole entry)": "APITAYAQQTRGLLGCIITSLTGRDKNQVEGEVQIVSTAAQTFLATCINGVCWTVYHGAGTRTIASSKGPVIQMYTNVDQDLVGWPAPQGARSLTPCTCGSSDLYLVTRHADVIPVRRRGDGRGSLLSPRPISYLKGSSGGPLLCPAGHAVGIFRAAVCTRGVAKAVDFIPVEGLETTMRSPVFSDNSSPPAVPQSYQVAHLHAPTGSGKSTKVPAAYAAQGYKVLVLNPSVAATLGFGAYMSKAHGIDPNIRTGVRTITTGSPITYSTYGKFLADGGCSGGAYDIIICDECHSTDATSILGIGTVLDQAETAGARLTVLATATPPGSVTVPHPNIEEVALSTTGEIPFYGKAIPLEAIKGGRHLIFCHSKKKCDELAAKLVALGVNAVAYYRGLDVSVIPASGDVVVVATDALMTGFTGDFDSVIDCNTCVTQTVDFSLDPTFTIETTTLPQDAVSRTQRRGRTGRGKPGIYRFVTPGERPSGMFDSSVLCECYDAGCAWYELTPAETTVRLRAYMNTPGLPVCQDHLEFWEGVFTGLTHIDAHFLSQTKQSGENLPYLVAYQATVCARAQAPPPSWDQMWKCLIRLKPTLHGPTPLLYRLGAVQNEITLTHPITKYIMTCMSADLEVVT", "experiment": "(§1) Inhibition of HCV (Hepatitis C Virus) NS3-4A protease.", "type": "protein-complex assay, Hepacivirus hominis", "units": {"Ki": "µM"}, "values": [
      {"smiles": "CC[C@@H](C=O)NC(=O)[C@@H]1C[C@@H](OCc2cccc3ccccc23)CN1C(=O)[C@@H](NC(=O)[C@@H](NC(=O)c1cnccn1)C(C)C)C(C)C", "note": "(Pyrazinecarbonyl-VV[Hyp](CH2(1-naphthyl))[Abu]-aldehyde)", "Ki": 2.9},
      {"smiles": "CC[C@@H](C=O)NC(=O)[C@@H]1C[C@@H](OC(=O)Nc2ccccc2)CN1C(=O)[C@@H](NC(=O)[C@@H](NC(=O)c1cnccn1)C(C)C)C(C)C", "note": "(Pyrazinecarbonyl-VV[Hyp]([CO-NHPh])[Abu]-aldehyde)", "Ki": 22.3},
      {"smiles": "CC[C@@H](C=O)NC(=O)[C@@H]1C[C@@H](Oc2ccc3ccccc3c2)CN1C(=O)[C@@H](NC(=O)[C@@H](NC(=O)c1cnccn1)C(C)C)C(C)C", "Ki": 7.4},
      {"smiles": "CC[C@@H](C=O)NC(=O)[C@@H]1C[C@@H](Oc2cccc3cccnc23)CN1C(=O)[C@@H](NC(=O)[C@@H](NC(=O)c1cnccn1)C(C)C)C(C)C", "Ki": "> 50"},
      {"smiles": "CC[C@@H](C=O)NC(=O)[C@@H]1C[C@@H](OC(=O)Nc2cccc3ccccc23)CN1C(=O)[C@@H](NC(=O)[C@@H](NC(=O)c1cnccn1)C(C)C)C(C)C", "note": "(Pyrazinecarbonyl-VV[Hyp]([CO-NH(1-naphthyl)])[Abu]-aldehyde)", "Ki": 12.5},
      {"smiles": "CC[C@@H](C=O)NC(=O)[C@@H]1C[C@@H](OC(=O)Nc2ccccc2C(=O)OC)CN1C(=O)[C@@H](NC(=O)[C@@H](NC(=O)c1cnccn1)C(C)C)C(C)C", "note": "(Pyrazinecarbonyl-VV[Hyp]([CO-2Abz-OMe])[Abu]-aldehyde)", "Ki": 2.5},
      {"smiles": "CC[C@@H](C=O)NC(=O)[C@@H]1C[C@@H](Oc2cccc3ccccc23)CN1C(=O)[C@@H](NC(=O)[C@@H](NC(=O)c1cnccn1)C(C)C)C(C)C", "Ki": 2.1},
      {"smiles": "CC[C@@H](C=O)NC(=O)[C@@H]1C[C@@H](OC(=O)Nc2cc(OC)ccc2OC)CN1C(=O)[C@@H](NC(=O)[C@@H](NC(=O)c1cnccn1)C(C)C)C(C)C", "note": "(Pyrazinecarbonyl-VV[Hyp]([CO-X4])[Abu]-aldehyde)", "Ki": 7.9},
      {"smiles": "CC[C@@H](C=O)NC(=O)[C@@H]1C[C@@H](Oc2ccccc2)CN1C(=O)[C@@H](NC(=O)[C@@H](NC(=O)c1cnccn1)C(C)C)C(C)C", "note": "(Pyrazinecarbonyl-VV[Pro(4R-OPh)][Abu]-aldehyde)", "Ki": 3.9},
      {"smiles": "CC[C@@H](C=O)NC(=O)[C@@H]1C[C@@H](OC(=O)c2ccccc2)CN1C(=O)[C@@H](NC(=O)[C@@H](NC(=O)c1cnccn1)C(C)C)C(C)C", "note": "(Pyrazinecarbonyl-VV[Hyp](Bz)[Abu]-aldehyde)", "Ki": 5.8},
      {"smiles": "CC[C@@H](C=O)NC(=O)[C@@H]1C[C@@H](OC(=O)Nc2cc(Cl)ccc2Cl)CN1C(=O)[C@@H](NC(=O)[C@@H](NC(=O)c1cnccn1)C(C)C)C(C)C", "note": "(Pyrazinecarbonyl-VV[Hyp]([CO-X2])[Abu]-aldehyde)", "Ki": 3.2},
      {"smiles": "CC[C@@H](C=O)NC(=O)[C@@H]1C[C@@H](OC(=O)c2ccc3ccccc3c2)CN1C(=O)[C@@H](NC(=O)[C@@H](NC(=O)CCCCC(=O)O)C(C)C)C(C)C", "note": "(Adipoyl-VV[Hyp](2Naphthoyl)[Abu]-aldehyde)", "Ki": 0.11},
      {"smiles": "CC[C@@H](C=O)NC(=O)[C@@H]1C[C@@H](OCc2ccc3ccccc3c2)CN1C(=O)[C@@H](NC(=O)[C@@H](NC(=O)c1cnccn1)C(C)C)C(C)C", "note": "(Pyrazinecarbonyl-VV[Hyp](X1)[Abu]-aldehyde)", "Ki": 1.7},
      {"smiles": "CC[C@@H](C=O)NC(=O)[C@@H]1C[C@@H](OC(=O)N2CCCc3ccccc32)CN1C(=O)[C@@H](NC(=O)[C@@H](NC(=O)c1cnccn1)C(C)C)C(C)C", "note": "(Pyrazinecarbonyl-VV[Hyp]([CO-X3])[Abu]-aldehyde)", "Ki": 0.89},
      {"smiles": "CC[C@@H](C=O)NC(=O)[C@@H]1C[C@@H](OC(=O)c2cccc3ccccc23)CN1C(=O)[C@@H](NC(=O)[C@@H](NC(=O)c1cnccn1)C(C)C)C(C)C", "note": "(Pyrazinecarbonyl-VV[Hyp](1Naphthoyl)[Abu]-aldehyde)", "Ki": 1.9},
      {"smiles": "CC[C@@H](C=O)NC(=O)[C@@H]1C[C@@H](OC(=O)c2ccc3ccccc3c2)CN1C(=O)[C@@H](NC(=O)[C@@H](NC(=O)c1cnccn1)C(C)C)C(C)C", "note": "(Pyrazinecarbonyl-VV[Hyp](2Naphthoyl)[Abu]-aldehyde)", "Ki": 0.4}
    ]},
    {"molecular_target": "Hepatitis C virus serine protease, NS3/NS4A (Hepatitis C virus, UniProt A3EZI9+D2K2A8)", "sequence (D2K2A8 whole entry)": "as the sequence (D2K2A8 whole entry) above", "sequence (A3EZI9 whole entry)": "as the sequence (A3EZI9 whole entry) above", "experiment": "as §1", "type": "protein-complex assay, Hepacivirus hominis", "units": {"Ki": "µM"}, "values": [
      {"smiles": "CCC[C@@H](C=O)NC(=O)[C@@H]1C[C@@H](OCc2ccccc2)CN1C(=O)[C@@H](NC(=O)[C@@H](NC(=O)c1cnccn1)C(C)C)C(C)C", "note": "(Pyrazinecarbonyl-VV[Hyp](Bn)[Nva]-aldehyde)", "Ki": 3.8},
      {"smiles": "CC[C@@H](C=O)NC(=O)[C@@H]1C[C@@H](OCc2ccccc2)CN1C(=O)[C@@H](NC(=O)[C@@H](NC(=O)[C@H](CC(=O)O)NC(=O)[C@H](CCC(=O)O)NC(C)=O)C(C)C)C(C)C", "note": "(Ac-EDVV[Hyp](Bn)[Abu]-aldehyde)", "Ki": 0.89},
      {"smiles": "CC[C@@H](C=O)NC(=O)[C@@H]1C[C@@H](OCc2ccccc2)CN1C(=O)[C@@H](NC(=O)[C@@H](NC(=O)c1cnccn1)C(C)C)C(C)C", "note": "(Pyrazinecarbonyl-VV[Hyp](Bn)[Abu]-aldehyde)", "Ki": 12},
      {"smiles": "COC[C@@H](C=O)NC(=O)[C@@H]1C[C@@H](OCc2ccccc2)CN1C(=O)[C@@H](NC(=O)[C@@H](NC(=O)c1cnccn1)C(C)C)C(C)C", "note": "(Pyrazinecarbonyl-VV[Hyp](Bn)S(Me)-aldehyde)", "Ki": "> 50"},
      {"smiles": "CC(C)[C@H](NC(=O)c1cnccn1)C(=O)N[C@H](C(=O)N1C[C@H](OCc2ccccc2)C[C@H]1C(=O)NC(C=O)CC(F)(F)F)C(C)C", "note": "(some centres not stated) (Pyrazinecarbonyl-VV[Hyp](Bn)[ξAla(CF3)]-aldehyde)", "Ki": 3.1},
      {"smiles": "CC(C)[C@H](NC(=O)c1cnccn1)C(=O)N[C@H](C(=O)N1C[C@H](OCc2ccccc2)C[C@H]1C(=O)NC(C)(C)C=O)C(C)C", "note": "(Pyrazinecarbonyl-VV[Hyp](Bn)[Aib]-aldehyde)", "Ki": "> 50"}
    ]}
  ]
}
